Where two headings read alike, the source gives them in different places.
Columns and labels:
PPARγ = PPARγ (Homo sapiens, UniProt P37231); conditions: at physiological concentrations
From the text: (§1) For RXR: CV-1 cells were transfected with rCRBPII/RXRE-tk-Luc reporter gene and an expression vector for RXRα, β, or γ. For RAR: CV-1 cells were transfected with ERE-tk-Luc reporter gene and an expression vector for the appropriate ER-RARα, β, or γ. ER-RARs are fusion proteins, composed of the estrogen receptor (ER) DNA binding domain fused to the ligand binding domain of RARs. This system eliminates interference by the low level of endogenous RAR activity in CV1 cells as the readout comes only from the transfected ER-RAR. For PPARγ: CV-1 cells were transfected with 3x(rAOX/DR1)-tk-Luc reporter gene and an expression vector for PPARγ; for FXR: CV-1 cells were transfected with 3x(IBABP/IR1)-tk-Luc reporter gene and vectors for FXR and RXRα; for LXR: CV-1 cells were transfected with 3x(PLTP/LXRE)-tk-Luc reporter gene with vectors for LXRα or LXRβ. For Nurr1: COS7 cells were transfected with 3xNBRE-tk-luc reporter gene and full length Nurr1 with or without full-length RXRα plasmid. […] Luciferase data were normalized to co-transfected β-gal activity. Luciferase activity is expressed as percent of maximal activity obtained using specific agonists 9-cis-retinoic acid (RXR), retinoic acid (RAR), rosiglitazone (PPARγ), GW4064 (FXR), T0901317 (LXR).

RXRβ = RXRβ (Homo sapiens, UniProt P28702); conditions: CV-1 cells, 20h
Chain of RXRβ (P28702 whole entry): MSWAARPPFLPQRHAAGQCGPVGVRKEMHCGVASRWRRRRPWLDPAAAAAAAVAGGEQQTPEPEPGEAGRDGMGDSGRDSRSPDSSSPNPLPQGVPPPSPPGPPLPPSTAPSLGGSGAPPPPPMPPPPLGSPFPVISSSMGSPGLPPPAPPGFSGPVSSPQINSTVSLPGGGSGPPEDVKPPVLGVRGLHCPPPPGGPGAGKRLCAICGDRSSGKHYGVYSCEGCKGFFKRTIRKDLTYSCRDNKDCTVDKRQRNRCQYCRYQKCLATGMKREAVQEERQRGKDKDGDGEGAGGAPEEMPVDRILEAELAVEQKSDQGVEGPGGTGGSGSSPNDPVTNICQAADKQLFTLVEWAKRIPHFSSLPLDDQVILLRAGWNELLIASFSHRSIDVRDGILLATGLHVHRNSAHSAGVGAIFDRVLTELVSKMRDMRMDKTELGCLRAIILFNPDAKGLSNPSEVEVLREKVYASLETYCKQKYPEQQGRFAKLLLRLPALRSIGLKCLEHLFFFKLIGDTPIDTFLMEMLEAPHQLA
From the text: as §1

[1] = Plasma pharmacokinetics after oral gavage; assay type: in vivo; conditions: SD, rat
Description: […] Rats were treated with the designated dose by daily gavage. Acute plasma PK was conducted on day one and acute-on-chronic plasma PK was conducted on day 24. Pharmacokinetic assessment was conducted by collecting of blood at baseline (prior gavage), 0.25, 0.5, 1, 2, 4, 8, 12 and 24h post gavage. […] The spiked plasma was dialyzed at 37°C against an isotonic sodium phosphate buffer to achieve equilibrium. At the end of dialysis, the plasma and buffer level of IRX4204 were quantified by LC/MS/MS.
The LC/MS system was comprised of Waters Acquity Ultra Performance Liquid Chromatography (UPLC) coupled to a XEVO-TQS (Waters). The samples were analyzed by reverse-phase HPLC using a Waters Atlantis T3 column (150 × 2.1mm, 5um). The mobile phase was nebulized using heated nitrogen in a Z-spray source/interface set to electrospray negative ionization mode. The ionized compounds were detected using MS/MS. […] The detection was linear between 2.5nM to 10nM.

6-OHDA lesioned rats = test: Cylinder test in 6-OHDA lesioned rat model of PD; assay type: in vivo; conditions: 10mg/kg/day gavage for three weeks, day 17 and day 24 post-lesion, p < 0.05
Description: All surgical procedures were performed under general anesthesia with ketamine/xylazine. 2μl 6-OHDA (20 mg/ml in 0.02% ascorbic acid) was stereotaxically injected into the right striatum of male SD rats. Lesion coordinates were set according to bregma and dura in mm: ML-3.7; AP-1.0; DV-5.5. The injection rate was 2μl/5 min and the injecting needle was left for 2 minutes after injection to avoid back flow. Apomorphine-induced rotations (see below) were assessed three days post-lesion and rats with ≥ 30 full contralateral rotation/30 minutes were included in the study.
Rats were randomly grouped into vehicle control group (n = 11) and drug treatment group (n = 10). […] The control group received DMSO/corn oil (vehicle). The treatment continued for three weeks.
The cylinder test was used to test for forelimb use asymmetry. Rats to be tested were placed individually in a glass cylinder (21 cm diameter, 34 cm height) and wall exploration was recorded for five minutes. Wall exploration was expressed in terms of the percentage of impaired (right) forelimb vs. total (right+left+both) usage. Paw placement test was performed before the lesion for baseline, three days post lesion and two weeks and three weeks following treatment.

primary VMB neurons = test: Nurr1 downstream gene expression in VMB neurons (real time PCR); assay type: cell-based, mouse; conditions: 1nM, 16 hours
Description: Ventral midbrain (VMB) from E13.5-14.5 C57BL/6 mouse embryos were dissected, triturated and plated on poly-D-lysine coated 12 well plates or glass coverslips with the serum-free chemically-defined Neurobasal medium, supplemented with 2% B27, 0.5mM L-glutamine, 50I.U./ml penicillin and 50μg/ml streptomycin (Gibco-BRL). […] For each time point, cells were washed once with phosphate buffered saline and fixed with 4% paraformaldehyde for TH immunofluorescent staining. For cell counting, 10 frames were randomly captured from each well using a Leica fluorescent microscope and a minimum of four replicates for each dose and each time point were analyzed for each experiment.
Total RNA from VMB neurons or rat substantia nigra were isolated using the RNeasy Mini Kit from Qiagen (Valencia, CA) and 1μg of total RNA was reverse transcribed using SuperScript III first-strand synthesis supermix for qRT-PCR from Invitrogen (Carlsbad, CA) according to the manufacturer's instruction. Quantitative RT-PCR was performed using Maxima SYBR Green master mix (Fermentas) in ABI Prism 7900HT in four replicates with primers amplifying the target genes. Expression level of actin was used as an internal control. Data were normalized using the 2^−ΔΔCt method. Levels of target gene mRNAs were expressed relative to those in vehicle control groups and plotted in GraphPad Prism.

[2] = female, 1 mg/kg/day, 1mg/kg/day gavage, Week 4
[3] = female, 1 mg/kg/day, Female, 1mg/kg/day gavage, Day 1
[4] = female, 3 mg/kg/day, 3mg/kg/day gavage, Week 4
[5] = female, 3 mg/kg/day, Female, 3mg/kg/day gavage, Day 1
[6] = female, 10 mg/kg/day, 10 mg/kg/day gavage, Week 4
[7] = female, 10 mg/kg/day, Female, 10 mg/kg/day gavage, Day 1
[8] = male, 1 mg/kg/day, 1mg/kg/day gavage, Week 4
[9] = male, 1 mg/kg/day, Male, 1mg/kg/day gavage, Day 1
[10] = male, 3 mg/kg/day, 3mg/kg/day gavage, Week 4
[11] = male, 3 mg/kg/day, Male, 3mg/kg/day gavage, Day 1
[12] = male, 10 mg/kg/day, 10 mg/kg/day gavage, Week 4
[13] = male, 10 mg/kg/day, Male, 10 mg/kg/day gavage, Day 1

Chain of PPARγ (P37231 whole entry, species assumed, the tested form may be a part): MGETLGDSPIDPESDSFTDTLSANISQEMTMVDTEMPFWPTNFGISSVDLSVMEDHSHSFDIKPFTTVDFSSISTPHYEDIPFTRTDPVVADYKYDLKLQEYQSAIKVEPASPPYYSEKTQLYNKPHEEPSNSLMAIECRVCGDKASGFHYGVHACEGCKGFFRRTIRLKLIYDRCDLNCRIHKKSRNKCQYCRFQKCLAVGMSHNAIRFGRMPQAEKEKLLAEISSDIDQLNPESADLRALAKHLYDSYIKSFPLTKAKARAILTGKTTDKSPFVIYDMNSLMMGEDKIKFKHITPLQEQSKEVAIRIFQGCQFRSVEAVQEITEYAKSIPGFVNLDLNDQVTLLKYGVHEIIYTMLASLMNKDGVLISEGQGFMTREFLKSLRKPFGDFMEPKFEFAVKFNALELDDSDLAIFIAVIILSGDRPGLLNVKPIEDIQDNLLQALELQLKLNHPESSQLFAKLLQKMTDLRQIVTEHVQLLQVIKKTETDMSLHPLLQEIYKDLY
Chain of PPARγ (P19793 whole entry partner, species assumed, the tested form may be a part): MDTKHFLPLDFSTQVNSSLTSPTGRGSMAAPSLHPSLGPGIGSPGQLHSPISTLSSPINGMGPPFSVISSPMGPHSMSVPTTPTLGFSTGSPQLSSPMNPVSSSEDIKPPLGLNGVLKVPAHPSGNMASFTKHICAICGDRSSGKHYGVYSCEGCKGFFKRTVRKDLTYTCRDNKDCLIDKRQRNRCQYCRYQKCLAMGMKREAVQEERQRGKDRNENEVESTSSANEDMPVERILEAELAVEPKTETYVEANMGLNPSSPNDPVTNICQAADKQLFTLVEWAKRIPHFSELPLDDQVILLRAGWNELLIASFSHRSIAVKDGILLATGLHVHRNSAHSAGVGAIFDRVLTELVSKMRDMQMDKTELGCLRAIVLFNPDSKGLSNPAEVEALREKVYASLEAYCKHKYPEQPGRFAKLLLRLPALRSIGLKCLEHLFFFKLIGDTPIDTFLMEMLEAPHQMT

CC(/C=C/[C@@H]1C[C@]1(C)c1ccc2c(c1)C(C)(C)CCC2(C)C)=C\C(=O)O [IRX4204]
activation of RXR heterodimer of PPARγ (PPARγ): does not activate | concentration that fully activates RXRβ (RXRβ): 1 nM | concentration that partially activates RXRβ (RXRβ): 0.1 nM | Cmax [1, 2]: 43.4 ng/mL | Tmax [1, 2]: 15 min | Cmax [1, 3]: 120 ng/mL | Tmax [1, 3]: 30 min | AUC(0-t) ([1]; female, 1 mg/kg/day, Female, 1mg/kg/day gavage, Day 1, read-out: AUC0-24): 251 ng·h/mL | AUC(0-t) ([1]; female, 1 mg/kg/day, Female, 1mg/kg/day gavage, Week 4, read-out: AUC0-24): 136 ng·h/mL | Cmax [1, 4]: 101 ng/mL | Tmax [1, 4]: 60 min | Cmax [1, 5]: 362 ng/mL | Tmax [1, 5]: 30 min | AUC(0-t) ([1]; female, 3 mg/kg/day, Female, 3mg/kg/day gavage, Day 1, read-out: AUC0-24): 975 ng·h/mL | AUC(0-t) ([1]; female, 3 mg/kg/day, Female, 3mg/kg/day gavage, Week 4, read-out: AUC0-24): 344 ng·h/mL | Cmax [1, 6]: 667 ng/mL | Tmax [1, 6]: 15 min | Cmax [1, 7]: 974 ng/mL | Tmax [1, 7]: 30 min | AUC(0-t) ([1]; female, 10 mg/kg/day, Female, 10 mg/kg/day gavage, Day 1, read-out: AUC0-24): 2440 ng·h/mL | AUC(0-t) ([1]; female, 10 mg/kg/day, Female, 10 mg/kg/day gavage, Week 4, read-out: AUC0-24): 940 ng·h/mL | Cmax [1, 8]: 25.7 ng/mL | Tmax [1, 8]: 15 min | Cmax [1, 9]: 58.9 ng/mL | Tmax [1, 9]: 30 min | AUC(0-t) ([1]; male, 1 mg/kg/day, Male, 1mg/kg/day gavage, Day 1, read-out: AUC0-24): 140 ng·h/mL | AUC(0-t) ([1]; male, 1 mg/kg/day, Male, 1mg/kg/day gavage, Week 4, read-out: AUC0-24): 27.5 ng·h/mL | Cmax [1, 10]: 54.5 ng/mL | Tmax [1, 10]: 30 min | Cmax [1, 11]: 198 ng/mL | Tmax [1, 11]: 30 min | AUC(0-t) ([1]; male, 3 mg/kg/day, Male, 3mg/kg/day gavage, Day 1, read-out: AUC0-24): 484 ng·h/mL | AUC(0-t) ([1]; male, 3 mg/kg/day, Male, 3mg/kg/day gavage, Week 4, read-out: AUC0-24): 280 ng·h/mL | Cmax [1, 12]: 77.2 ng/mL | Tmax [1, 12]: 15 min | Cmax [1, 13]: 542 ng/mL | Tmax [1, 13]: 15 min | AUC(0-t) ([1]; male, 10 mg/kg/day, Male, 10 mg/kg/day gavage, Day 1, read-out: AUC0-24): 1490 ng·h/mL | AUC(0-t) ([1]; male, 10 mg/kg/day, Male, 10 mg/kg/day gavage, Week 4, read-out: AUC0-24): 422 ng·h/mL | spontaneous forelimb use in the cylinder test (6-OHDA lesioned rats): significantly improved spontaneous forelimb use to pre-lesion levels | expression of dopa-decarboxylase (DDC) (primary VMB neurons): significantly increased | expression of dopamine transporter (DAT) (primary VMB neurons): significantly increased
